From patent US12528816B2, “Substituted imidazo [1,2-b] pyridazines and [1, 2, 4] triazolo [ 4,3-b] pyridazines as camkii inhibitors” (Cardurion Pharmaceuticals, INC., priority 2020, dated 2026)

molecular target: T1, human CaMKIIδ (Homo sapiens, UniProt Q13557); assay: Evaluation of in vitro CaMKII inhibitory activity (binding assay, TR-FRET); conditions: in vitro CaMKII inhibitory activity (binding assay), human CaMKIIδ; read-out: Act
T1 construct: Full-length, glutathione-S-transferase(GST)-tagged, human CaMKIIδ was purchased from Carna Biosciences; purchased Carna Biosciences (CaMKIIδ); Wako Pure Chemical Industries (calmodulin) 02-111
How it was run: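 Inhibitors, in eight concentrations of 4-fold dilution, were incubated 1 h at room temperature with a protein–fluorescent probe premix preformed 30 min on ice, containing calmodulin and terbium anti-GST antibody. Displacement read by TR-FRET in duplicate; IC50 by logistic fitting.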

| SMILES | IC50 |
| --- | --- |
| Cc1ccnc(-c2cnc3ccc(-c4cccc(O[C@@H](C)Cn5cnnn5)c4)nn23)c1C#N [compound 378] | < 10 nM |
| CCc1ccnc(-c2cnc3ccc(-c4cccc(O[C@@H](C)Cn5cnnn5)c4)nn23)c1C#N [compound 380] | < 10 nM |
| C[C@@H](Cn1cnnn1)Oc1cccc(-c2ccc3ncc(-c4nc[nH]c(=O)c4C#N)n3n2)c1 [compound 381] | < 10 nM |
| C[C@@H](Cn1cnnn1)Oc1cccc(-c2ccc3ncn(-c4cc(C(F)F)ccc4C#N)c3n2)n1 [compound 382] | > 100 nM |
| C[C@@H](Cn1cnnn1)Oc1cncc(-c2ccc3ncn(-c4cc(C(F)F)ccc4C#N)c3n2)n1 [compound 384] | > 100 nM |
| C[C@@H](Cn1cnnn1)Oc1cccc(-c2ccc3ncn(-c4cc(OC(F)F)ccc4C#N)c3n2)n1 [compound 385] | > 100 nM |
| C[C@@H](Cn1cnnn1)Oc1cccc(-c2ccc3ncc(-c4nc(Cl)ccc4C#N)n3n2)c1 [compound 386] | < 10 nM |
| C[C@@H](Cn1cnnn1)Oc1cccc(-c2ccc3nnc(-c4cc(F)ccc4C#N)n3n2)c1 [compound 387] | > 100 nM |
| C[C@@H](Cn1cnnn1)Oc1cccc(-c2ccc3ncc(-c4nc(C(F)F)ccc4C#N)n3n2)c1 [compound 388] | < 10 nM |
| CC(=O)c1ccc(C#N)c(-c2cnc3ccc(-c4cccc(O[C@@H](C)Cn5cnnn5)c4)nn23)n1 [compound 389] | 10 to 100 nM |
| CC(O)c1ccc(C#N)c(-c2cnc3ccc(-c4cccc(O[C@@H](C)Cn5cnnn5)c4)nn23)n1 (some centres unmarked) [compound 390] | < 10 nM |
| C[C@@H](Cn1cnnn1)Oc1cccc(-c2ccc3nnc(-c4ncccc4C#N)n3n2)c1 [compound 391] | > 100 nM |
| C[C@@H](Cn1cnnn1)Oc1cccc(-c2ccc3ncc(-c4ncnc(N)c4C#N)n3n2)c1 [compound 394] | 10 to 100 nM |
| C[C@@H](Cn1cnnn1)Oc1cccc(-c2ccc3ncn(-c4cccc(C(F)F)c4C#N)c3n2)c1 [compound 395] | < 10 nM |
| COc1cc(F)cc(-n2cnc3ccc(-c4cncc(O[C@@H](C)Cn5cnnn5)n4)nc32)c1C#N [compound 396] | < 10 nM |
| C[C@@H](Cn1cnnn1)Oc1cccc(-c2ccc3ncn(-c4cccc(C(F)F)c4C#N)c3n2)n1 [compound 397] | > 100 nM |
| C[C@@H](Cn1cnnn1)Oc1cccc(-c2ccc3ncn(-c4cccc(OC(F)F)c4C#N)c3n2)n1 [compound 398] | 10 to 100 nM |
| COc1nccc(-c2cnc3ccc(-c4cccc(O[C@@H](C)Cn5cnnn5)c4)nn23)c1C#N [compound 400] | < 10 nM |
| C[C@@H](Cn1cnnn1)Oc1cccc(-c2ccc3ncc(-c4nccc(C(F)F)c4C#N)n3n2)c1 [compound 401] | < 10 nM |
| COc1ncnc(-c2cnc3ccc(-c4ccc(F)c(O[C@@H](C)Cn5cnnn5)c4)nn23)c1C#N [compound 402] | < 10 nM |
| COc1nccc(-c2cnc3ccc(-c4cccc(O[C@@H](C)Cn5cnnn5)n4)nn23)c1C#N [compound 403] | < 10 nM |
| COc1cccc(-c2cnc3ccc(-c4cccc(O[C@@H](C)Cn5cnnn5)n4)nn23)c1C#N [compound 404, 2-methoxy-6-[6-(6-{[(2S)-1-(1H-tetrazol-1-yl)propan-2-yl]oxy}pyridin-2-yl)imidazo[1,2-b]pyridazin-3-yl]benzonitrile] | < 10 nM |

| SMILES | IC50 |
| --- | --- |
| C[C@@H](Cn1cnnn1)Oc1cccc(-c2ccc3ncn(-c4cc(F)cc(OC(F)F)c4C#N)c3n2)n1 [compound 405] | < 10 nM |
| C[C@@H](Cn1cnnn1)Oc1cncc(-c2ccc3ncn(-c4cc(F)cc(OC(F)F)c4C#N)c3n2)n1 [compound 406] | 10 to 100 nM |
| C[C@@H](Cn1cnnn1)Oc1cccc(-c2ccc3ncn(-c4cc(F)cc(C(F)F)c4C#N)c3n2)n1 [compound 407] | 10 to 100 nM |
| COc1cc(F)c(C#N)c(-c2cnc3ccc(-c4cccc(O[C@@H](C)Cn5cnnn5)n4)nn23)c1 [compound 408] | < 10 nM |
| COc1cc(F)cc(-n2cnc3ccc(-c4cc(O[C@@H](C)Cn5cnnn5)ccn4)nc32)c1C#N [compound 411] | < 10 nM |
| COc1ccnc(-c2cnc3ccc(-c4cccc(O[C@@H](C)Cn5cnnn5)n4)nn23)c1C#N [compound 414] | 10 to 100 nM |
| C[C@@H](Cn1cnnn1)Oc1cccc(-c2ccc3ncc(-c4cnccc4C#N)n3n2)n1 [compound 415] | < 10 nM |
| C[C@@H](Cn1cnnn1)Oc1cccc(-c2ccc3ncc(-c4ccc(F)cc4C#N)n3n2)n1 [compound 418] | 10 to 100 nM |
| C[C@@H](Cn1cnnn1)Oc1cccc(-c2ccc3ncc(-c4cccc(F)c4C#N)n3n2)n1 [compound 419] | < 10 nM |
| COc1ccc(C#N)c(-c2cnc3ccc(-c4cccc(O[C@@H](C)Cn5cnnn5)n4)nn23)c1 [compound 420] | < 10 nM |
| C[C@@H](Cn1cnnn1)Oc1cccc(-c2ccc3ncc(-c4cc(F)cc(F)c4C#N)n3n2)n1 [compound 421] | < 10 nM |
| C[C@@H](Cn1cnnn1)Oc1cccc(-c2ccc3ncc(-c4c(C#N)ccc(F)c4F)n3n2)n1 [compound 422] | < 10 nM |
| C[C@@H](Cn1cnnn1)Oc1cccc(-c2ccc3ncc(-c4c(F)ccc(F)c4C#N)n3n2)n1 [compound 423] | < 10 nM |
| COc1cc(F)c(C#N)c(-n2cnc3ccc(-c4cccc(O[C@@H](C)Cn5cnnn5)n4)nc32)c1 [compound 424] | < 10 nM |
| C[C@@H](Cn1cnnn1)Oc1cccc(-c2ccc3ncc(-c4ccccc4C#N)n3n2)n1 [compound 425, 2-[6-(6-{[(2S)-1-(1H-tetrazol-1-yl)propan-2-yl]oxy}pyridin-2-yl)imidazo[1,2-b]pyridazin-3-yl]benzonitrile] | < 10 nM |
| COc1cccc(-c2cnc3ccc(-c4cncc(O[C@@H](C)Cn5cnnn5)n4)nn23)c1C#N [compound 428, 2-methoxy-6-[6-(6-{[(2S)-1-(1H-tetrazol-1-yl)propan-2-yl]oxy}pyrazin-2-yl)imidazo[1,2-b]pyridazin-3-yl]benzonitrile] | < 10 nM |
| COc1ccnc(-c2cnc3ccc(-c4cncc(O[C@@H](C)Cn5cnnn5)n4)nn23)c1C#N [compound 429] | > 100 nM |
| COc1ccnc(-c2cnn3ccc(-c4cccc(O[C@@H](C)Cn5cnnn5)n4)nc23)c1C#N [compound 430] | > 100 nM |
| C[C@@H](Cn1cnnn1)Oc1cc(-c2ccc3ncc(-c4[nH]ccc(=O)c4C#N)n3n2)ccc1F [compound 431, 2-[6-(4-fluoro-3-{[(2S)-1-(1H-tetrazol-1-yl)propan-2-yl]oxy}phenyl)imidazo[1,2-b]pyridazin-3-yl]-4-oxo-1,4-dihydropyridine-3-carbonitrile] | > 100 nM |
| COc1cccc(-c2cnc3ccc(-c4ccc(F)c(O[C@@H](C)Cn5cnnn5)c4)nn23)n1 [compound 432] | < 10 nM |
| C[C@@H](Cn1cnnn1)Oc1cccc(-c2ccc3ncc(-c4cc(F)c(F)cc4C#N)n3n2)n1 [compound 433] | < 10 nM |
| C[C@@H](Cn1cnnn1)Oc1cccc(-c2ccc3ncc(-c4cc(F)cnc4C#N)n3n2)c1 [compound 434] | < 10 nM |

| SMILES | IC50 |
| --- | --- |
| C[C@@H](Cn1cnnn1)Oc1cc(-c2ccc3ncc(-c4c(C#N)c(=O)ccn4CF)n3n2)ccc1F [compound 436] | 10 to 100 nM |
| COc1ccnc(-c2cnn3ccc(-c4ccc(F)c(O[C@@H](C)Cn5cnnn5)c4)nc23)c1C#N [compound 437] | < 10 nM |
| COc1cc(F)cc(-c2cnc3ccc(-c4cc(O[C@@H](C)Cn5cnnn5)ccn4)nn23)c1C#N [compound 438] | < 10 nM |
| COc1cc(F)cc(-n2cnc3ccc(-c4ccc(F)c(O[C@@H](C)Cn5cnnn5)n4)nc32)c1C#N [compound 439] | < 10 nM |
| COc1cc(OC)c(C#N)c(-n2cnc3ccc(-c4cccc(O[C@@H](C)Cn5cnnn5)n4)nc32)c1 [compound 440] | 10 to 100 nM |
| C[C@@H](Cn1cnnn1)Oc1cncc(-c2ccc3ncc(-c4cc(Cl)ccc4C#N)n3n2)n1 [compound 441] | < 10 nM |
| C[C@@H](Cn1cnnn1)Oc1cccc(-c2ccc3ncn(-c4cc(Cl)ccc4C#N)c3n2)n1 [compound 442] | < 10 nM |
| COc1cc(F)cc(-c2cnc3ccc(-c4cncc(O[C@@H](C)Cn5cncn5)n4)nn23)c1C#N [compound 443] | < 10 nM |
| COc1ccnc(-c2cnc3ccc(-c4ccc(F)c(O[C@@H](C)Cn5ncnn5)c4)nn23)c1C#N [compound 444] | < 10 nM |
| C[C@@H](Cn1cnnn1)Oc1cncc(-c2ccc3ncn(-c4cc(Cl)ccc4C#N)c3n2)n1 [compound 445] | 10 to 100 nM |
| C[C@@H](Cn1cnnn1)Oc1cncc(-c2ccc3ncn(-c4cccc(Cl)c4C#N)c3n2)n1 [compound 446] | > 100 nM |
| C[C@@H](Cn1cnnn1)Oc1nc(-c2ccc3ncc(-c4cc(F)ccc4C#N)n3n2)ccc1F [compound 449] | < 10 nM |
| C[C@@H](Cn1cnnn1)Oc1cccc(-c2ccc3ncc(-c4ncc(F)cc4C#N)n3n2)c1 [compound 450] | < 10 nM |
| C[C@@H](Cn1cnnn1)Oc1cccc(-c2ccc3ncc(-c4nc(F)c(F)cc4C#N)n3n2)c1 [compound 451] | < 10 nM |
| C[C@@H](Cn1cnnn1)Oc1cccc(-c2ccc3ncn(-c4cccc(Cl)c4C#N)c3n2)n1 [compound 453] | 10 to 100 nM |
| COc1cc(Cl)cc(-n2cnc3ccc(-c4cccc(O[C@@H](C)Cn5cnnn5)n4)nc32)c1C#N [compound 454] | < 10 nM |
| COc1cc(Cl)cc(-c2cnc3ccc(-c4cncc(O[C@@H](C)Cn5cnnn5)n4)nn23)c1C#N [compound 455] | < 10 nM |
| COc1cc(OC)c(C#N)c(-c2cnc3ccc(-c4cccc(O[C@@H](C)Cn5cnnn5)n4)nn23)c1 [compound 456] | < 10 nM |
| C[C@@H](Cn1cnnn1)Oc1cccc(-c2ccc3ncc(-c4nccc(C(F)F)c4C#N)n3n2)n1 [compound 457] | 10 to 100 nM |
| C[C@@H](Cn1cnnn1)Oc1cccc(-c2ccc3ncc(-c4ncccc4C#N)n3n2)n1 [compound 458] | > 100 nM |
| COc1ncnc(-c2cnc3ccc(-c4cccc(O[C@@H](C)Cn5cnnn5)n4)nn23)c1C#N [compound 459] | > 100 nM |
